Data reported in patent US4533666A, “6-Phenyl-2,3-bis-(4-methoxyphenyl)-pyridine derivatives having anti-inflammatory activity” (Eli Lilly and Company, priority 1983, dated 1985).

Assays:
[1] = Established adjuvant-induced arthritis test in rats, uninjected paw volume inflammation; format: in vivo, rat (male Lewis-Wistar rats); details: Days 14 through 30, AUC difference
[2] = mouse writhing assay (acetic acid-induced); format: in vivo, mouse (Cox standard strain albino male mice); details: oral gavage in corn oil-acacia emulsion (5%), three hours before acetic acid (0.60 percent) i.p., five mice per group; for ED50: Mus musculus, po, 3 h
From the text: The analgesic activity of a number of compounds provided by this invention has been determined in the standard mouse writhing assay. Writhing, which is characterized by contraction of the abdominal musculature, extension of the hindlegs, and rotation of the trunk, was induced in Cox standard strain albino male mice. The mice, weighing 18-24 grams, were fasted overnight and given the test compound by gavage in a corn oil-acacia emulsion (5%) three hours before writhing was induced by the intraperitoneal administration of acetic acid (0.60 percent). Each treatment group consisted of five mice. The total number of writhes for the treatment group was determined during a 10-minute observation starting five minutes after acetic acid administration. […] Table I which follows presents typical test results obtained with certain of the compounds of this invention. The results in the mouse writhing assay are presented as the effective oral (p.o.) dose in mg./kg. of the tested compound required to inhibit induced writhing in the test animals by fifty percent (ED50).

| SMILES | % Inhibition of Uninjected Paw Volume Inflammation ([1]; 5 mg./kg. p.o. × 15) [%] | % Inhibition of Uninjected Paw Volume Inflammation ([1]; 10 mg./kg. p.o. × 15) [%] | ED50 [2] [mg/kg] | % Inhibition of Uninjected Paw Volume Inflammation ([1]; 25 mg./kg. p.o. × 15) [%] | also measured |
| --- | --- | --- | --- | --- | --- |
| COc1ccc(-c2ccc(-c3ccc(F)cc3)nc2-c2ccc(OC)cc2)cc1 [Example 1, 6-(4-Fluorophenyl)-2,3-bis(4-methoxyphenyl)pyridine] | 70 | 80 | 3.5 |  |  |
| COc1ccc(-c2ccc(-c3ccccc3)nc2-c2ccc(OC)cc2)cc1 [Example 2, 6-Phenyl-2,3-bis(4-methoxyphenyl)pyridine] |  |  | 2.7 |  | % Inhibition of Uninjected Paw Volume Inflammation ([1]; 25 mg./kg. p.o. × 15, Average of two experiments): 40% |
| COc1ccc(-c2ccc(-c3ccc(Cl)cc3)nc2-c2ccc(OC)cc2)cc1 [Example 3, 6-(4-Chlorophenyl)-2,3-bis(4-methoxyphenyl)pyridine] | 30 | 58 | 0.78 |  |  |
| COc1ccc(-c2ccc(-c3ccc(Br)cc3)nc2-c2ccc(OC)cc2)cc1 [Example 4, 6-(4-Bromophenyl)-2,3-bis(4-methoxyphenyl)pyridine] |  | 27 | 4.1 | 48 |  |
| COc1ccc(-c2ccc(-c3ccc(F)cc3)nc2-c2ccc(OC)cc2)cc1 [Example 6, 6-(4-Fluorophenyl)-2,3-bis(4-methoxyphenyl)pyridine 4-methylbenzenesulfonate] |  |  |  |  | % Inhibition of Uninjected Paw Volume Inflammation ([1]; 5 mg./kg. p.o. × 15, 4-methylbenzenesulfonate): 69%; % Inhibition of Uninjected Paw Volume Inflammation ([1]; 10 mg./kg. p.o. × 15, 4-methylbenzenesulfonate): 71%; Mouse Writhing ED50 ([2]; 180 min, 4-methylbenzenesulfonate, 180 min): 4.2 mg./kg. p.o. |
| COc1ccc(-c2ccc(-c3ccc(C(F)(F)F)cc3)nc2-c2ccc(OC)cc2)cc1 [Example 7, 6-(4-Trifluoromethylphenyl)-2,3-bis(4-methoxyphenyl)pyridine] |  |  | 8.9 | 33 |  |
